{
  "source": "patent US20230399622A1",
  "about": "“THERAPY FOR DEGENERATIVE DISEASE AND TISSUE DAMAGE” (FUNDACIÓ CENTRE DE REGULACIÓ GENÒMICA, priority 2020, published 2023)",
  "key": {"MSCs [1]": {"test_system": "MSCs", "assay": "Transwell chemotactic assay of MSCs with chemokine receptor antagonists, media conditioned by NMDA-damaged retina", "type": "cell-based, mouse", "conditions": "towards media conditioned by NMDA-damaged (24 hpi) retina; vs vehicle DMSO; working concentrations of Table 2", "description": "(§1) Chemotactic assays were performed using transwell inserts (pore size, 8 μm, BD Biosciences—353182) and 12-well culture plates. To test migration towards defined chemokine gradients, lower chambers were loaded with 1.2 ml of SF DMEM/F-12-GlutaMAX medium with either mCcl5, mCxcl1, mCxcl10, mCxcl16 or a combination of Ccl5 and mCxcl16 (all 50 ng/ml, Peprotech). For tests of NMDA-damage, mice were sacrificed 24 hpi; rd10 mice were sacrificed at P18. Human retina were dissected and cultured for an initial 12 hours in Neurobasal A medium, as previously described. Afterwards, both mouse and human retina were cultured for 24 hours in SF DMEM/F-12-GlutaMAX and SF Neurobasal A (with or without 1 mM NMDA) respectively. 1.2 ml of the resulting conditioned medium were loaded in the lower chambers of the transwell. The upper chamber was loaded with 2×10^5 MSCs in SF medium. The medium used to resuspend MSCs was matched to the medium in the bottom chamber: either DMEM/F-12-GlutaMAX (to test migration towards medium conditioned by mouse retina) or Neurobasal A (to test migration towards medium conditioned by human retina). […]\n(§2) Transwell plates were incubated for 1.5 hours at 37° C. […] For each insert, seven fields were imaged and analysed. Cells were automatically counted using a custom-made macro for the ImageJ software (US National Institutes of Health, Bethesda, Md., USA; http://rsb.info.nih.gov/ij/)."}, "MSCs [2]": {"test_system": "MSCs", "assay": "Transwell chemotactic assay of MSCs with chemokine receptor antagonists, media conditioned by rd10 retina", "type": "cell-based, mouse", "conditions": "towards media conditioned by rd10 (P18) retina; vs vehicle DMSO; working concentrations of Table 2", "description": "as §1, §2"}},
  "data": [
    {"smiles": "NS(=O)(=O)c1c(Cl)ccc(NC(=O)Nc2cccc(Cl)c2Cl)c1O", "note": "[Cxcr2 inhibitor, SB 332235]", "values": [
      {"measurement": "migration of MSCs in the presence of receptor inhibitors", "setting": "MSCs [1]", "value": "not affected"},
      {"measurement": "migration of MSCs in the presence of receptor inhibitors", "setting": "MSCs [2]", "value": "not affected"}
    ]},
    {"smiles": "COc1cc(C(=O)NC2C[C@H]3CCC[C@@H](C2)N3CC(=O)Nc2ccccc2Cl)cc(OC)c1OC", "note": "(stereo partly shown) [Cxcr6 inhibitor, ML 339]", "values": [
      {"measurement": "migration of MSCs in the presence of receptor inhibitors", "setting": "MSCs [1]", "value": "significantly reduced"},
      {"measurement": "migration of MSCs in the presence of receptor inhibitors", "setting": "MSCs [2]", "value": "significantly reduced"}
    ]}
  ]
}
